Measured values from US6593301B1, “Use of steroidal saponins for the prophylaxis or treatment of dementia, and novel steroidal saponin compounds” (Institute of Radiation Medicine, priority 2000, dated 2003).
Like-named read-outs stand apart in the source and are kept apart here.

Tests used:
cerebral basilar artery = assay: Experiment on cerebral basilar artery (isolated artery on transducer, KCl as vasoconstrictor); settings: for Effect on the basilar artery (dilation): 50 μl solution added to the bath
Procedure: Take 50 μl solutions to dissolved in 5 ml saline again. (2). Remove the cerebrum and cerebellum from the fresh brain, and get the middle part of the basilar artery (3). Adjust the transducer and amplifier to make pointer return to zero (4). Hang the basilar artery on the transducer and immerse it in the bath.

[1] = Scavenging effects on hydroxyl free radicals (Fenton reaction, ESR)
[2] = tested on: nicotinic receptors (SY-SH5Y human neuroblastoma cell); settings: SY-SH5Y cells treated three days, 1 μM up to 100 μM
Procedure: (§1) In the experiments, we used two different cell lines, SY-SH5Y and M10. SY-SH5Y is human neuroblastoma cell which expresses natural nicotinic and muscarinic receptors, and M10 cell expresses the recombinant a4b2 subtype of chicken nicotinic receptor. We treated both cell lines with Compound III for three days with different concentrations from 1 μM up to 100 μM, and measured the amount of nAChRs.

[3] = tested on: recombinant a4b2 subtype of chicken nicotinic receptor (M10 cells); settings: M10 cells treated three days, 1 μM up to 100 μM
Procedure: as §1

[4] = tested on: cerebral blood flow of rat; settings: for Mean of rCBF / Rate of rCBF increase / rCBF Rat 1 / rCBF Rat 2 / rCBF Rat 3 / rCBF Rat 4: 50 μg/Kg intravenous
Procedure: Method: Hydrogen-clearing method
Instrument: LS-III Blood Flow Meter
1. Anesthetize the rat with 10% chloral hydrate, separate the general vein of thigh and intubate to prepare to inject Compound III.
2. Open a window in the parietal lobe of dermal epithelium with cranial drill and lay up hydrogen electrode.
3. After operation, collect the animal with the Blood Follow Meter and computer, steady for 30 minutes and begin to measure the rCBF (regional cerebral blood flow).

[5] = tested on: rat hippocampus neuronal cells; assay: Proliferation of rat hippocampus neuronal cells (MTT staining, OD); assay type: cell-based; settings: 7 days
Procedure: 1. Get hippocampus neuronal cells from rat embryo and do preliminary cell culture.
2. Incubate the cells for 7 days at different concentration (3 or 5 parallel holes for each group).
3. Do MTT staining and measure OD value.

rat thoracic aorta = settings: 0.04 mM
Description: Take thoracic aorta from rat, remove the connective tissue and blood, immerse the aorta into the Krebs-Henselelt liquid and ventilate oxygen, hang the aorta on the transducer, and assay its radial tension.

## CC1=C(CC[C@H](C)CO[C@@H]2O[C@H](CO)[C@@H](O)[C@H](O)[C@H]2O)O[C@H]2C[C@H]3[C@@H]4CC[C@@H]5C[C@@H](O[C@@H]6O[C@H](CO)[C@H](O)[C@H](O)[C@H]6O[C@@H]6O[C@H](CO)[C@@H](O)[C@H](O)[C@H]6O)CC[C@]5(C)[C@H]4CC[C@]3(C)[C@@H]12 [Compound I, (25S)-26-O-β-D-glucopyranosyl-5β-furost-20(22)-ene-3β,26-diol-3-O-β-D-glucopyranosyl(1→2)-β-D-galactopyranoside]
Cerebral basilar artery
  Effect on the basilar artery (dilation): no obvious effect
[1]; 5 mg/ml, ESR, Fenton reaction
  Scavenging rate: 23.3%
[1]; Fe^2++H2O2
  Scavenging of hydroxyl free radicals produced by Fenton reaction (in words): could scavenge

## COC1(CC[C@H](C)CO[C@@H]2O[C@H](CO)[C@@H](O)[C@H](O)[C@H]2O)O[C@H]2C[C@H]3[C@@H]4CC[C@@H]5C[C@@H](O[C@@H]6O[C@H](CO)[C@H](O)[C@H](O)[C@H]6O[C@@H]6O[C@H](CO)[C@@H](O)[C@H](O)[C@H]6O)CC[C@]5(C)[C@H]4CC[C@]3(C)[C@H]2[C@@H]1C (stereo partly drawn) [Compound IV, (25S)-26-0-β-D-glucopyranosyl-22-methoxy-5β-furost-3β,26-diol-3-0-β-D-glucopyranosyl(1→2)-β-D-galactopyranoside]
Cerebral basilar artery
  Effect on the basilar artery (dilation): no obvious effect
[1]
  Scavenging of hydroxyl free radicals produced by Fenton reaction (in words): could scavenge
  Scavenging rate: 33.3%

## C[C@@H](CCC1(O)O[C@H]2C[C@H]3[C@@H]4CC[C@@H]5C[C@@H](O[C@@H]6O[C@H](CO)[C@H](O)[C@H](O)[C@H]6O[C@@H]6O[C@H](CO)[C@@H](O)[C@H](O)[C@H]6O)CC[C@]5(C)[C@H]4CC[C@]3(C)[C@H]2[C@@H]1C)CO[C@@H]1O[C@H](CO)[C@@H](O)[C@H](O)[C@H]1O (stereo partly drawn) [Compound III, (25S)-26-β-D-glucopyranosyl-22-hydroxy-5β-furost-3β,26-diol-3-0-β-D-glucopyranosyl(1→2)-β-D-galactopyranoside]
[2]
  Number of nAChRs: significantly up-regulate
[3]
  Number of nAChRs: significantly up-regulate
[4]; 1 min
  Mean of rCBF: 141562.5 µL/min/mg
  Rate of rCBF increase: 7.806%
  rCBF Rat 1: 133300 µL/min/mg
  rCBF Rat 2: 150050 µL/min/mg
  rCBF Rat 3: 139550 µL/min/mg
  rCBF Rat 4: 143350 µL/min/mg
[4]; 10 min
  Mean of rCBF: 149785 µL/min/mg
  Rate of rCBF increase: 14.07%
  rCBF Rat 1: 147990 µL/min/mg
  rCBF Rat 2: 143410 µL/min/mg
  rCBF Rat 3: 162100 µL/min/mg
  rCBF Rat 4: 145640 µL/min/mg
[4]; 20 min
  Mean of rCBF: 148405 µL/min/mg
  Rate of rCBF increase: 13.02%
  rCBF Rat 1: 158460 µL/min/mg
  rCBF Rat 2: 136330 µL/min/mg
  rCBF Rat 3: 177590 µL/min/mg
  rCBF Rat 4: 121240 µL/min/mg
[4]; 30 min
  Mean of rCBF: 163497.5 µL/min/mg
  Rate of rCBF increase: 24.51%
  rCBF Rat 1: 164610 µL/min/mg
  rCBF Rat 2: 182960 µL/min/mg
  rCBF Rat 3: 171420 µL/min/mg
  rCBF Rat 4: 135000 µL/min/mg
[4]; 40 min
  Mean of rCBF: 164670 µL/min/mg
  Rate of rCBF increase: 25.4%
  rCBF Rat 1: 176900 µL/min/mg
  rCBF Rat 2: 202460 µL/min/mg
  rCBF Rat 3: 165940 µL/min/mg
  rCBF Rat 4: 113380 µL/min/mg
[4]; 50 min
  Mean of rCBF: 166147.5 µL/min/mg
  Rate of rCBF increase: 26.53%
  rCBF Rat 1: 176770 µL/min/mg
  rCBF Rat 2: 193570 µL/min/mg
  rCBF Rat 3: 163080 µL/min/mg
  rCBF Rat 4: 131170 µL/min/mg
[4]; 50 μg/kg in vivo (text summary, time not stated)
  Increase of the rCBF of rat: 26.5%
[4]; administered intravenously at the effective concentration (50 μg/kg)
  Hemolysis: no hemolysis
[5]; 0.1 μg/ml
  Mean of OD: 0.0773
  Proliferation rate: 23.88%
[5]; 1 μg/ml
  Mean of OD: 0.0663
  Proliferation rate: 6.25%
[5]; 10 μg/ml
  Mean of OD: 0.0860
  Proliferation rate: 37.82%
[5]; 50 μg/ml
  Mean of OD: 0.0807
  Proliferation rate: 29.33%
[5]; 100 μg/ml
  Mean of OD: 0.0750
  Proliferation rate: 20.19%
[5]; 500 μg/ml
  Mean of OD: 0.0903
  Proliferation rate: 44.71%
[5]; 1000 μg/ml
  Mean of OD: 0.0673
  Proliferation rate: 7.853%
Rat thoracic aorta
  Inhibition of contraction of rat aorta caused by KCl: could restrain the contraction
Cerebral basilar artery
  Effect on the basilar artery (dilation): dilated slightly
Cerebral basilar artery; after 50 μl compound added to the bath
  Contraction of the basilar artery when adding the vasoconstrictor KCl: did not contract again
Cerebral basilar artery; at 10^−5 g/ml (0.01 mM)
  Dilation of cerebral vascular and resistance to contraction caused by vasoconstrictor: could dilate cerebral vascular and resist the contraction caused by vasoconstrictor
Cerebral basilar artery; same experimental conditions
  Effective concentration compared with positive Ligustrazine: two orders of magnitude lower
[1]
  Inhibitory rate (hydroxyl free radicals): 56.7%
  Scavenging effect relative to the other compounds: most effective
  Scavenging of hydroxyl free radicals produced by Fenton reaction (in words): could scavenge
  Scavenging rate: 56.7%

## CC1=C(CC[C@H](C)CO[C@@H]2O[C@H](CO)[C@@H](O)[C@H](O)[C@H]2O)O[C@H]2C[C@H]3[C@@H]4CC[C@@H]5C[C@@H](O[C@@H]6O[C@H](CO)[C@@H](O)[C@H](O)[C@H]6O[C@@H]6O[C@H](CO)[C@@H](O)[C@H](O)[C@H]6O)CC[C@]5(C)[C@H]4CC[C@]3(C)[C@@H]12 [Compound II, (25S)-26-O-β-D-glucopyranosyl-5β-furost-20(22)-ene-3β,26-diol-3-O-β-D-glucopyranosyl(1→2)-β-D-glucopyranoside]
Cerebral basilar artery
  Effect on the basilar artery (dilation): no obvious effect
[1]; 5 mg/ml, ESR, Fenton reaction
  Scavenging rate: 40.0%
[1]; Fe^2++H2O2
  Scavenging of hydroxyl free radicals produced by Fenton reaction (in words): could scavenge
